Results reported in paper PMC4490100 (Clinical cancer research : an official journal of the …, 2015).

How the values were obtained:
OCI-AML3 cells = test: Cell death assay; assay type: cell-based, human; details: OCI-AML3, overnight at 37 °C, 40 μM or higher, AnnexinV-FITC/PI flow cytometry
[1] = system: mononuclear cells from normal bone marrow; assay type: cell-based, human
human leukemia cells = test: Leukemia cell morphology after overnight incubation; assay type: cell-based; details: overnight incubation (Fig. 4C)

effects on mononuclear cells from normal bone marrow [1]: no detectable effects
Substance: CGRRAGGSC-GG-D(KLAKLAK)2 (disulfide) [BMTP-11]
cell death (fraction of cells) (OCI-AML3 cells): ~ 90%
effect on leukemia cell morphology (human leukemia cells): affected the morphology
